The values that follow are results of earlier work, collected in US20140271772A1, “BIODEGRADABLE SUBCUTANEOUS IMPLANTS AND METHODS OF MAKING” (priority 2013, published 2014).

Data set [1] has as its system cats.

`Nc1nc2c(ncn2COCCO)c(=O)[nH]1` [acyclovir]: the oral bioavailability is 10-30%. Also, the toxicity to cats entry in data set [1] is “toxic to cats”.
